The values that follow are results of earlier work, collected in patent publication US8642577B2 (priority 2005, dated 2014).

The test system of the data set is poxvirus. Conditions: in vivo, po.

Each structure is given as a SMILES string.

Take `Nc1ccn(C[C@@H](CO)OCP(=O)(O)O)c(=O)n1` [CDV, cidofovir]: the “activity against poxvirus when given orally” value is “inactive when given orally”.
For the compound `Nc1ccn(C[C@H]2COP(=O)(O)CO2)c(=O)n1` [cCDV, cyclic cidofovir], the “activity against poxvirus when given orally” value was “inactive when given orally”.
